Measurements published in EP3072956A1, “Selective culture medium for polymyxin-resistant, gram-negative bacteria” (priority 2015, dated 2016).

Experiments:
[1] = system: A. baumannii; assay: MIC determination by broth microdilution (MHB-CA, CLSI); assay type: cell-based
Experimental: (§1) Determination of MIC values were performed by broth microdilution in Cation-Adjusted Mueller-Hinton broth (MHB-CA) according to the CLSI guidelines (Clinical and Laboratory Standards Institute). Polymyxin B and colistin (Sigma-Aldrich, Saint-Louis) were tested with or without Tween 80 over a range dilution from 0.12 to 128 µg/ml. The surfactant Tween 80, at a final concentration of 0.002%, prevents the binding of polymyxins to multi-array plastic panel. Actually, the use of Tween for determination of MIC of polymyxins is still debatable. MHB-CA broth and 5.10^5 CFU/ml of each tested strain were distributed in each well. Following the EUCAST breakpoints, strains were characterized as susceptible or resistant to polymyxins.

[2] = system: S. maltophilia; assay: as above; assay type: cell-based
Experimental: as §1

Row | Substance | MIC ([1]; strain 38B9, With Tween80) [µg/mL] | MIC ([1]; strain 38B9, Without Tween80) [µg/mL] | MIC ([1]; strain Aba6, With Tween80) [µg/mL] | MIC ([1]; strain Aba6, Without Tween80) [µg/mL] | MIC ([1]; strain C105, With Tween80) [µg/mL] | MIC ([1]; strain C105, Without Tween80) [µg/mL] | MIC ([2]; strain Sm2, With Tween80) [µg/mL] | MIC ([2]; strain Sm2, Without Tween80) [µg/mL] | MIC ([2]; strain SmA51, With Tween80) [µg/mL] | MIC ([2]; strain SmA51, Without Tween80) [µg/mL]
1 | colistin | 0.25 | 0.5 | 128 | 128 | 0.12 | 0.5 | >128 | >128 | 16 | 32
2 | polymyxin B | 0.25 | 0.5 | 128 | 128 | 0.12 | 0.5 | >128 | >128 | 32 | 32
